Test system: Candida-Zellen
Test: Antimycotic in vivo efficacy (oral) in mouse candidosis
Design: species or system Mäuse vom Typ SPF-CF1; key to Wirkung: + + + + +: sehr gute Wirkung = 90 % Überlebende am 6.Tag.p.i.; + + + +: gute Wirkung = 80 % Überlebende am 6.Tag.p.i.; + + +: Wirkung = 60 % Überlebende am 6.Tag.p.i.; + +: schwache Wirkung = 40 % Überlebende am 6.Tag.p.i.; +: Spur Wirkung = unter 40 % Überlebende am 6. Tag p.i.; k.W.: kein Unterschied zur unbehandelten Infektionskontrolle
Conditions: for Wirkung: mice infected i.v. with 1 - 2 x 10^6 Candida cells, oral treatment with 10 - 100 mg/kg each, one hour before and seven hours after infection, survivors on day 6 p.i.
Description: Antimykotische in-vivo-Wirksamkeit (oral) bei Mäusecandidose
Mäuse vom Typ SPF-CF1 wurden intravenös mit […] logarithmisch wachsenden Candida-Zellen, die in physiologischer Kochsalzlösung suspendiert werden, infiziert. Eine Stunde vor und sieben Stunden nach der Infektion werden die Tiere mit jeweils 10 - 100 mg/kg Körpergewicht der Präparate oral behandelt.
Unbehandelte Tiere starben 3 bis 6 Tage post infektionem. Die Überlebensrate am 6.Tag post infektionem betrug bei unbehandelten Kontrolltieren etwa 5 %.

In the case of `OC(Cn1cncn1)(c1ccc(Cl)cc1)C1(F)CC1` (stereo not shown) [(A)], the Wirkung is reported as “k.W”.
For `OC(Cc1ccc(F)cc1)(Cn1cncn1)C1(Cl)CC1` (stereo not shown) [(I-1), 1-(4-Fluorphenyl)-2-(1-chlor-cyclopropyl)-3-(1,2,4-triazol-1-yl)-propan-2-ol], the Wirkung was “+ + + + + (sehr gute Wirkung = 90 % Überlebende am 6.Tag.p.i.)” and the “Wirkung (comparison with known compounds)” value (oral, mouse candidosis, statement in words, compared with (A) and (B)) was “bessere Wirkung”.
For `OC(Cn1cncn1)(c1ccccc1)C1(F)CC1` (stereo not shown) [(B)], the Wirkung was “k.W”.
